Where two headings read alike, the source gives them in different places.
Legend:
Assay type in all cases: in vivo
[1] = system: eastern black nightshade (Solanum ptycanthum); test: Test C pre/postemergence; details: Preemergence, scale 0 to 100, 0 no effect, 100 complete control
In short: (§1)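 Visual injury ratings, 0 (no effect) to 100 (complete control), made 12 to 14 days after treatment by comparison with untreated controls. Greenhouse plants received test chemical in a surfactant-containing non-phytotoxic solvent, either preemergence on planted seeds or postemergence at the 1- to 4-leaf stage.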

[2] = system: lambsquarters (Chenopodium album); test: Test C pre/postemergence; details: for pest or weed control at 16 g/ha: 16 g ai/ha; for pest or weed control at 62 g/ha: 62 g ai/ha
In short: as §1

[3] = system: goosegrass (Eleusine indica); test: Test C pre/postemergence; details: for pest or weed control at 16 g/ha: 16 g ai/ha
In short: as §1

[4] = system: cocklebur (Xanthium strumarium); test: Test C pre/postemergence; details: for Plant response rating, Cocklebur: Preemergence
In short: as §1

[5] = system: crabgrass (Digitaria sanguinalis); test: Test C pre/postemergence; details: for pest or weed control at 16 g/ha: 16 g ai/ha
In short: as §1

[6] = system: velvetleaf (Abutilon theophrasti); test: Test C pre/postemergence; details: for Plant response rating, Velvetleaf: Preemergence, scale 0 to 100, 0 no effect, 100 complete control
In short: as §1

corn (Zea mays) = test: Test C pre/postemergence; details: for Plant response rating, Corn: Preemergence
In short: as §1

[7] = system: bermudagrass (Cynodon dactylon); test: Test C pre/postemergence; details: for pest or weed control at 16 g/ha: 16 g ai/ha
In short: as §1

[8] = system: barnyardgrass (Echinochloa crus-galli); test: Test A pre/postemergence
In short: (§2)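 Visual injury scores on a 0–100 scale, 100 being complete control, were assigned roughly ten days after treatment by comparison with untreated greenhouse controls. Test chemicals, formulated with surfactant in non-phytotoxic solvent, were sprayed onto soil preemergence and onto 1–2-leaf plants 2–10 cm tall postemergence.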

[9] = system: giant foxtail (Setaria faberi); test: Test A pre/postemergence
In short: as §2

[10] = Chenopodium album, post-emergence, Postemergence, read-out: Plant response rating (scale of 0 to 100), Lambsquarters
[11] = Chenopodium album, pre-emergence, Preemergence, scale 0 to 100, 0 no effect, 100 complete control, read-out: Plant response rating, Lambsquarters
[12] = Preemergence, 31 g ai/ha, scale 0 to 100, 0 no effect, 100 complete control
[13] = Preemergence, 125 g ai/ha, scale 0 to 100
[14] = Preemergence, 62 g ai/ha, scale 0 to 100, 0 no effect, 100 complete control
[15] = 16 g ai/ha, scale 0 to 100, 0 no effect, 100 complete control
[16] = 31 g ai/ha, scale 0 to 100, 0 no effect, 100 complete control
[17] = 62 g ai/ha, scale 0 to 100, 0 no effect, 100 complete control
[18] = Postemergence, 125 g ai/ha, 0 to 100 scale (0 no effect, 100 complete control)
[19] = Postemergence, 500 g ai/ha, 0 to 100 scale (0 no effect, 100 complete control)
[20] = Preemergence, 125 g ai/ha, 0 to 100 scale where 0 is no effect and 100 is complete control, approximately ten days
[21] = Preemergence, 500 g ai/ha, 0 to 100 scale where 0 is no effect and 100 is complete control, approximately ten days

## Nc1nc(C2CC2)nc(C(=O)O)c1Cl [Compound 135, 6-amino-5-chloro-2-cyclopropyl-4-pyrimidinecarboxylic acid]
[1]; 31 g ai/ha
  Plant response rating, Nightshade: 30
[1]; 62 g ai/ha
  Plant response rating, Nightshade: 35
[1]
  Plant response rating, Nightshade: 50
[1]; Solanum, pre-emergence, 16 g ai/ha, read-out: Plant response rating, Nightshade
  pest or weed control at 16 g/ha: 0%
[2]; [10]
  pest or weed control at 16 g/ha: 60%
  pest or weed control at 62 g/ha: 90%
[2]; Chenopodium album, post-emergence, Postemergence, 31 g ai/ha, read-out: Plant response rating (scale of 0 to 100), Lambsquarters
  pest or weed control at 31 g/ha: 90%
[2]; Chenopodium album, post-emergence, Postemergence, 125 g ai/ha, scale 0 to 100 (0 no effect, 100 complete control), read-out: Lambsquarters plant response rating
  pest or weed control at 125 g/ha: 95%
[2]; [11]
  pest or weed control at 16 g/ha: 0%
  pest or weed control at 62 g/ha: 70%
[2]; [12]
  Plant response rating, Lambsquarters: 70
[2]; [13]
  Plant response rating, Lambsquarters: 90
[3]; Eleusine indica, post-emergence, Postemergence, read-out: Plant response rating (scale of 0 to 100), Goosegrass
  pest or weed control at 16 g/ha: 5%
[3]; Eleusine indica, post-emergence, Postemergence, 31 g ai/ha, read-out: Plant response rating (scale of 0 to 100), Goosegrass
  pest or weed control at 31 g/ha: 35%
[3]; Eleusine indica, post-emergence, Postemergence, 62 g ai/ha, read-out: Plant response rating (scale of 0 to 100), Goosegrass
  pest or weed control at 62 g/ha: 45%
[3]; Eleusine indica, post-emergence, Postemergence, 125 g ai/ha, scale 0 to 100 (0 no effect, 100 complete control), read-out: Goosegrass plant response rating
  pest or weed control at 125 g/ha: 55%
[3]; Eleusine indica, pre-emergence, Preemergence, scale 0 to 100, 0 no effect, 100 complete control, read-out: Plant response rating, Goosegrass
  pest or weed control at 16 g/ha: 0%
[3]; [12]
  Plant response rating, Goosegrass: 0
[3]; [14]
  Plant response rating, Goosegrass: 0
[3]; [13]
  Plant response rating, Goosegrass: 40
[4]; [15]
  Plant response rating, Cocklebur: 85
[4]; [16]
  Plant response rating, Cocklebur: 95
[4]; [17]
  Plant response rating, Cocklebur: 95
[4]; 125 g ai/ha, scale 0 to 100
  Plant response rating, Cocklebur: 100
[4]; Xanthium strumarium, post-emergence, Postemergence, 16 g ai/ha, read-out: Plant response rating (scale of 0 to 100), Cocklebur
  pest or weed control at 16 g/ha: 90%
[4]; Xanthium strumarium, post-emergence, Postemergence, 31 g ai/ha, read-out: Plant response rating (scale of 0 to 100), Cocklebur
  pest or weed control at 31 g/ha: 100%
[4]; Xanthium strumarium, post-emergence, Postemergence, 125 g ai/ha, scale 0 to 100 (0 no effect, 100 complete control), read-out: Cocklebur plant response rating
  pest or weed control at 125 g/ha: 100%
[5]; Digitaria sanguinalis, post-emergence, Postemergence, read-out: Plant response rating (scale of 0 to 100), Crabgrass
  pest or weed control at 16 g/ha: 65%
[5]; Digitaria sanguinalis, post-emergence, Postemergence, 31 g ai/ha, read-out: Plant response rating (scale of 0 to 100), Crabgrass
  pest or weed control at 31 g/ha: 75%
[5]; Digitaria sanguinalis, post-emergence, Postemergence, 62 g ai/ha, read-out: Plant response rating (scale of 0 to 100), Crabgrass
  pest or weed control at 62 g/ha: 75%
[5]; Digitaria sanguinalis, post-emergence, Postemergence, 125 g ai/ha, scale 0 to 100 (0 no effect, 100 complete control), read-out: Crabgrass plant response rating
  pest or weed control at 125 g/ha: 75%
[5]; Digitaria sanguinalis, pre-emergence, Preemergence, scale 0 to 100, 0 no effect, 100 complete control, read-out: Plant response rating, Crabgrass
  pest or weed control at 16 g/ha: 0%
[5]; [12]
  Plant response rating, Crabgrass: 0
[5]; [14]
  Plant response rating, Crabgrass: 0
[5]; [13]
  Plant response rating, Crabgrass: 5
[6]; Abutilon theophrasti, post-emergence, Postemergence, 16 g ai/ha, read-out: Plant response rating (scale of 0 to 100), Velvetleaf
  pest or weed control at 16 g/ha: 55%
[6]; Abutilon theophrasti, post-emergence, Postemergence, 31 g ai/ha, read-out: Plant response rating (scale of 0 to 100), Velvetleaf
  pest or weed control at 31 g/ha: 90%
[6]; Abutilon theophrasti, post-emergence, Postemergence, 125 g ai/ha, scale 0 to 100 (0 no effect, 100 complete control), read-out: Velvetleaf plant response rating
  pest or weed control at 125 g/ha: 95%
[6]; 16 g ai/ha
  Plant response rating, Velvetleaf: 60
[6]; 31 g ai/ha
  Plant response rating, Velvetleaf: 85
[6]; 62 g ai/ha
  Plant response rating, Velvetleaf: 90
Corn (Zea mays); [15]
  Plant response rating, Corn: 5
Corn (Zea mays); [16]
  Plant response rating, Corn: 30
Corn (Zea mays); [17]
  Plant response rating, Corn: 30
Corn (Zea mays); 125 g ai/ha, scale 0 to 100
  Plant response rating, Corn: 70
Corn (Zea mays); Zea mays, post-emergence, Postemergence, 16 g ai/ha, read-out: Plant response rating (scale of 0 to 100), Corn
  Corn plant response rating (crop injury, 0 = no effect, 100 = complete kill) at 16 g/ha: 5%
Corn (Zea mays); Zea mays, post-emergence, Postemergence, 31 g ai/ha, read-out: Plant response rating (scale of 0 to 100), Corn
  Corn plant response rating (crop injury, 0 = no effect, 100 = complete kill) at 31 g/ha: 10%
Corn (Zea mays); Zea mays, post-emergence, Postemergence, 62 g ai/ha, read-out: Plant response rating (scale of 0 to 100), Corn
  Corn plant response rating (crop injury, 0 = no effect, 100 = complete kill) at 62 g/ha: 20%
Corn (Zea mays); Zea mays, post-emergence, Postemergence, 125 g ai/ha, scale 0 to 100 (0 no effect, 100 complete control), read-out: Corn plant response rating
  Corn plant response rating (crop injury, 0 = no effect, 100 = complete kill) at 125 g/ha: 35%
[7]; Cynodon dactylon, post-emergence, Postemergence, read-out: Plant response rating (scale of 0 to 100), Bermudagrass
  pest or weed control at 16 g/ha: 40%
[7]; Cynodon dactylon, post-emergence, Postemergence, 62 g ai/ha, scale 0 to 100 (0 no effect, 100 complete control), read-out: Bermudagrass plant response rating
  pest or weed control at 62 g/ha: 60%
[7]; Cynodon dactylon, post-emergence, Postemergence, 125 g ai/ha, scale 0 to 100 (0 no effect, 100 complete control), read-out: Bermudagrass plant response rating
  pest or weed control at 125 g/ha: 75%
[7]; Cynodon dactylon, pre-emergence, Preemergence, scale 0 to 100, 0 no effect, 100 complete control, read-out: Plant response rating, Bermudagrass
  pest or weed control at 16 g/ha: 0%
[7]; [12]
  Plant response rating, Bermudagrass: 0
[7]; [14]
  Plant response rating, Bermudagrass: 0
[7]; [13]
  Plant response rating, Bermudagrass: 0
[8]; [18]
  Plant response rating, Barnyardgrass: 75
[8]; [19]
  Plant response rating, Barnyardgrass: 90
[8]; [20]
  Plant response rating, Barnyardgrass: 65
[8]; [21]
  Plant response rating, Barnyardgrass: 90
[9]; [18]
  Plant response rating, Foxtail, Giant: 75
[9]; [19]
  Plant response rating, Foxtail, Giant: 80
[9]; [20]
  Plant response rating, Foxtail, Giant: 30
[9]; [21]
  Plant response rating, Foxtail, Giant: 85

Reference: patent US8802597B2, “Herbicidal pyrimidines” (E I du Pont de Nemours and Company, priority 2003, dated 2014)
